This note sets out measurements from patent publication US20050226878A1, “Therapeutic combinations and methods including IRM compounds” (3M Innovative Properties Company, priority 2003, published 2005).

Experiment [1] concerns PBMCs. The experiment can be described thus: Example 6: IFN-α induction by PBMCs with anti-TNF antibody or isotype control (ELISA, FIG. 1). Type of experiment: cell-based, human. The settings on record: for IFN-α produced in combination with anti-TNF antibody versus IRM alone: IRM 3 μM + 1 μg/mL anti-TNF antibody, FIG. 1B versus FIG. 1A. As for the experimental part: (§1) Whole blood from healthy human donors was collected by venipuncture into EDTA vacutainer tubes (Becton Dickinson Labware, Lincoln Park, N.J.). […] The PBMCs are washed twice with Phosphate Buffered Saline (PBS, Biosource, Camarillo, Calif.) and then are suspended at 5×10^6 cells/mL in RPMI complete culture medium (Celox Laboratories, Inc., Hopkins, Minn.). One milliliter of the PBMC suspension and 1.5 milliliter of RPMI complete media were added to each well of a 24 well flat bottom sterile tissue culture plate (Becton Dickinson Labware, Lincoln Park, N.J.) for a final PBMC concentration of 2×10^6 cells/mL.
(§2) Following incubation the cells were centrifuged for 5-10 minutes at 1000 rpm (˜200×g) at 4° C. The cell-free culture supernatant was removed with a sterile polypropylene pipette and transferred to sterile polypropylene tubes. Samples were maintained at −70° C. until analysis.
(§3) The samples were analyzed for IFN-α, TNF-α and IFN-γ secreted into the culture medium. The concentration of secreted IFN-α was determined by ELISA using a Human Multi-Species kit (PBL Biomedical Laboratories, Piscataway, N.J.). Secreted TNF-α and IFN-γ were analyzed using a human-specific TNF-α BV™ or IFN-γ BV™ immunoassay (BioVeris Corp., Gaithersburg, Md.).
A general note: ELISA stands for enzyme-linked immunosorbent assay.

Experiment [2] has as its system PBMCs. The experiment can be described thus: Example 6: TNF-α induction by PBMCs with anti-TNF antibody or isotype control (immunoassay, FIG. 2). The experiment is classed as cell-based, human. To be noted: for TNF-α induction: IRM 3 μM alone (isotype control antibody), FIG. 2A; for TNF-α induced in combination with anti-TNF antibody: IRM 3 μM + 1 μg/mL anti-TNF antibody, FIG. 2B. As for the experimental part:
as §1, §2, §3

Experiment [3] deals with Human PBMCs. The experiment in a line: Example 2: TNF-α secreted by PBMCs treated with IRM compound or LPS after dexamethasone pre-incubation (ELISA). The experiment is classed as cell-based. The settings on record: IRM2 1.0 μg/mL, LPS 0.1 μg/mL, 24 hours. As for the experimental part: Human PBMCs were collected and prepared as described in Example 1. After one hour, the cells were treated with IRM compound, LPS, or left unstimulated, and then incubated for an additional 24 hours.
Secreted TNF-α was assayed by ELISA (Biosource International, Inc., Camarillo, Calif.).

The subject of experiment [4] is Human PBMCs. The experiment in a line: Example 4: IFN secreted by PBMCs with or without anti-TNF monoclonal antibody (virus neutralization bioassay, A549 cells/encephalomyocarditis virus). The experiment is classed as cell-based. To be noted: IRM2 1.0 μg/mL, LPS 0.1 μg/mL, 24 hours. As for the experimental part:
(§4) Human PBMCs were collected and prepared as described in Example 1. The cells were incubated with an anti-TNF monoclonal antibody (mouse anti-human TNF, Promega Corp., Madison, Wis.). After one hour, the cells were treated with IRM compound, LPS, or left unstimulated, and then incubated for an additional 24 hours.
Secreted IFN was assayed using a virus neutralization bioassay using A549 human lung carcinoma cells challenged with encephalomyocarditis. The details of the bioassay method have been described by G. L. Brennan and L. H. Kronenberg in “Automated Bioassay of Interferons in Micro-test Plates”, Biotechniques, June/July, 78, 1983, incorporated herein by reference. Briefly stated the method is as follows: A549 cells are incubated with dilutions of samples or a standard interferon at 37° C. for 24 hours. The incubated cells are then infected with an inoculum of encephalomyocarditis virus. The infected cells are incubated for an additional 24 hours at 37° C. before evaluating for viral cytopathic effect. The viral cytopathic effect is quantified by staining with crystal violet followed by visual scoring of the plates. Results are expressed as alpha reference units/mL based on the value obtained for NIH Human Leukocyte IFN standard.

In experiment [5] the test system is Human PBMCs. The experiment in a line: Example 4: TNF-α secreted by PBMCs with or without anti-TNF monoclonal antibody (ELISA). To be noted: IRM2 1.0 μg/mL, LPS 0.1 μg/mL, 24 hours. The experiment is classed as cell-based. As for the experimental part: as §4
(§5) Secreted TNF-α and IL-6 were assayed by ELISA (Biosource International, Inc., Camarillo, Calif.). Results are expressed in pg/mL for each cytokine.

The test system of the next experiment is male CFW mice. The experiment can be described thus: Example 3: serum TNF in mice challenged with IRM2 after oral dexamethasone (ELISA). Type of experiment: in vivo. To be noted: IRM2 10 mg/kg, no dexamethasone. As for the experimental part: A dexamethasone solution was prepared in saline and administered orally (3 mg/kg) to male CFW mice (Charles River Laboratories, Inc., Wilmington, Mass.) once or once daily for five days. Thirty minutes after the final administration of dexamethasone, the mice were challenged with a solution of IRM2 prepared in saline to provide a dose of 10 mg/kg. The mice were bled either 2 hours or 3 hours after being challenged with IRM2. Serum samples were analyzed by for TNF by ELISA as described in Example 1.

The subject of experiment [6] is Human PBMCs. The experiment can be described thus: Example 4: IL-6 secreted by PBMCs with or without anti-TNF monoclonal antibody (ELISA). To be noted: IRM2 1.0 μg/mL, LPS 0.1 μg/mL, 24 hours. Type of experiment: cell-based. As for the experimental part:
as §4, §5

The subject of experiment [7] is Peripheral blood mononuclear cells (PBMCs). The experiment in a line: Example 1: IFN-α secreted by PBMCs treated with IRM1 after dexamethasone pre-incubation (ELISA). Type of experiment: cell-based, human. To be noted: IRM1 1 μM, no dexamethasone, 24 hours. From the text: (§6) Whole blood from healthy human donors was collected by venipuncture into EDTA vacutainer tubes (Becton Dickinson Labware, Lincoln Park, N.J.). Peripheral blood mononuclear cells (PBMCs) are separated from whole blood by density gradient centrifugation using HISTOPAQUE-1077 (Sigma-Aldrich Chemical Co., St. Louis, Mo.). The PBMCs are washed twice with Hank's Balanced Salts Solution (Celox Laboratories, Inc., Hopkins, Minn.) and then are suspended at 3-4×10^6 cells/mL in RPMI complete culture medium (Celox Laboratories, Inc., Hopkins, Minn.). The PBMC suspension was added to 48 well flat bottom sterile tissue culture plates (Becton Dickinson Labware, Lincoln Park, N.J.) containing an equal volume of RPMI complete media containing dexamethasone (Sigma Chemical Co., St. Louis, Mo.) at one of the dexamethasone concentrations indicated in Table 2. After one hour, IRMI was added to a final concentration of 1 μM, and then incubated at 37° C. for an additional 24 hours. Following incubation the cells were centrifuged for 5-10 minutes at 1000 rpm (˜200×g) at 4° C. […] The samples were analyzed for IFN-α and TNF-α secreted into the culture medium. The concentration of secreted IFN-α was determined by ELISA using a Human Multi-Species kit (PBL Biomedical Laboratories, Piscataway, N.J.). […]

For experiment [8] the test system is unchanged. The experiment can be described thus: Example 1: TNF-α secreted by PBMCs treated with IRM1 after dexamethasone pre-incubation (ELISA). The experiment is classed as cell-based, human. The settings on record: IRM1 1 μM, no dexamethasone, 24 hours.
Source text: as §6

Where [9] appears, read: +Ab (anti-TNF monoclonal antibody).

Turning to `CCc1nc2c(N)nc3ccccc3c2n1CCCCNS(C)(=O)=O` [IRM8, N-[4-(4-amino-2-ethyl-1H-imidazo[4,5-c]quinolin-1-yl)butyl]methanesulfonamide], the “IFN-α produced in combination with anti-TNF antibody versus IRM alone” value in the experiment on PBMCs [1] is recorded as “increased levels”. Also, in the experiment on PBMCs [1] (IRM 3 μM alone (isotype control antibody), FIG. 1A, compared to other IRM compounds), the IFN-α induction entry is on record as “relatively potent inducer”. The TNF-α induction result in the experiment on PBMCs [2] is listed as “relatively poor inducer”.

For `Cc1nc2c(N)nc3ccccc3c2n1CC(C)(C)O` [IRM2, 4-amino-α,α,2-trimethyl-1H-imidazo[4,5-c]quinoline-1-ethanol], the “Secreted TNF-α” value in the experiment with Human PBMCs [3] (0 μM Dex.) is on record as 1570 pg/mL; with Human PBMCs [3] (0.01 μM Dex.), 775 pg/mL; with Human PBMCs [3] (0.1 μM Dex.), 224 pg/mL; in the experiment with Human PBMCs [3] (1.0 μM Dex.), 191 pg/mL. Besides, the IFN with Human PBMCs [4] (setting [9]) is 290 U/mL; in the experiment on Human PBMCs [4] (No Ab) it was 460 U/mL. Besides, the figures for the TNF in the experiment on Human PBMCs [5] (setting [9]) and in the experiment on Human PBMCs [5] (No Ab) were 61 pg/mL and 1340 pg/mL, respectively. Moreover, the “Serum TNF” value with male CFW mice (2 hrs. post-challenge) was determined as 2983 pg/mL; in the experiment with male CFW mice (3 hrs. post-challenge), 487 pg/mL. The IL-6 is on record as 24189 pg/mL with Human PBMCs [6] (setting [9]) and 20137 pg/mL in the experiment on Human PBMCs [6] (No Ab).

With `CCOCc1nc2c(N)nc3ccccc3c2n1CC(C)(C)O` [IRM1, 4-amino-α,α-dimethyl-2-ethoxymethyl-1H-imidazo[4,5-c]quinolin-1-ethanol], in experiment [7], the IFN came out at 959 U/mL. Moreover, the TNF in experiment [8] is recorded as 3000 pg/mL.

Consider `COCCc1nc2c(N)nc3ccccc3c2n1CCOCCNC(=O)N1CCOCC1` [IRM12, N-(2-{2-[4-amino-2-(2-methoxyethyl)-1H-imidazo[4,5-c]quinolin-1-yl]ethoxy}ethyl)morpholine-4-carboxamide], for which the “IFN-α produced in combination with anti-TNF antibody versus IRM alone” value with PBMCs [1] is recorded as “increased levels”. For the same compound, in the experiment with PBMCs [2], the “TNF-α induced in combination with anti-TNF antibody” value was “substantially limited” and the TNF-α induction result was “significant levels”.

As to `CCOCc1nc2c(N)nc3c(c2n1CC(C)(C)O)CCCC3` [IRM5, 4-amino-2-(ethoxymethyl)-α,α-dimethyl-6,7,8,9-tetrahydro-1H-imidazo[4,5-c]quinoline-1-ethanol], the “IFN-α produced in combination with anti-TNF antibody versus IRM alone” value in the experiment on PBMCs [1] is “increased levels”. Also, in the experiment on PBMCs [2], the “TNF-α induced in combination with anti-TNF antibody” value was “substantially limited” and the TNF-α induction result is recorded as “significant levels”.
